# Laboratory results: patent US7605185B2, “Treatment of arrhythmia by retinoids affecting signal transduction” (priority 1999, dated 2009)
# Columns and labels:
# [1] = tested on: cardiac myocytes; assay: TUNEL apoptosis staining with anti-myosin counterstain, confocal microscopy; assay type: in vivo, mouse
# Description: 1 week old litters of C57/b mice (around 3 g body weight) were divided into groups of five to 10 animals, to be treated with all-trans-RA in carrier, 9cis-RA in carrier, or carrier (canola oil, Sigma). Every treatment group was assigned to one nursing mother. Groups larger than 10 pups were avoided, to exclude limited feeding frequency as experimental variable. […] DMSO or ethanol content was limited to 0.1%. Pups were gavage-fed from a tuberculin syringe connected with a bent vein catheter. The strong suckling reflex facilitated delivery of the viscous and odorous formulation. Depending on the territorial protection behaviour of the mother, pups were briefly rolled in cage stray after gavage to prevent triggering maternal infanticide behaviour through unusual smell of the pups. For two hours after gavage, pups were carefully monitored to prevent maternal infanticide. Every 24 h, the weight was recorded.
# (§1) For uptake kinetics, pairs of treated pups were sacrificed by decapitation after 1 h, 2 h, 4 h, 8 h, 16 h, 24 h, 36 h and 72 h. Organs were removed under the dissection microscope and frozen in liquid nitrogen. […]
# [2] = tested on: cardiac conductance cells and cardiac neurons; assay: TUNEL apoptosis staining with connexin37/40 or neuron-specific enolase counterstain, confocal microscopy; assay type: in vivo, mouse
# Experimental: (§2) 1 week old litters of C57/b mice (around 3 g body weight) were divided into groups of five to 10 animals, to be treated with all-trans-RA in carrier, 9cis-RA in carrier, or carrier (canola oil, Sigma). Every treatment group was assigned to one nursing mother. Groups larger than 10 pups were avoided, to exclude limited feeding frequency as experimental variable. A retinoid preparation for gavage was formulated such that every animal received a maximum of 150 μl volume containing 40 mg/kg all-trans RA in carrier, 12 mg/kg or 20 mg/kg 9cis-RA in carrier, or carrier alone. DMSO or ethanol content was limited to 0.1%. Pups were gavage-fed from a tuberculin syringe connected with a bent vein catheter. The strong suckling reflex facilitated delivery of the viscous and odorous formulation. Depending on the territorial protection behaviour of the mother, pups were briefly rolled in cage stray after gavage to prevent triggering maternal infanticide behaviour through unusual smell of the pups. For two hours after gavage, pups were carefully monitored to prevent maternal infanticide. Every 24 h, the weight was recorded.
# (§3) For uptake kinetics, pairs of treated pups were sacrificed by decapitation after 1 h, 2 h, 4 h, 8 h, 16 h, 24 h, 36 h and 72 h. Organs were removed under the dissection microscope and frozen in liquid nitrogen. Hearts were dissected under the surgical dissection microscope; tissues were divided into atria, ventricles, and enriched in conductance system (a tissue preparation containing the ventricular septa with the Purkinje fibers and the atrial region between the aorta and the pulmonal artery (outflow tract) with the sinus node). For immunohistology, pups were sacrificed after 72 h, hearts were rinsed in PBS, weighed and fixed in 4% para-formaldehyde in PBS before embedding in OCT for standard cryostat procedures. If pups were on the brink of death (typically between 36 and 72 h after gavage), they were sacrificed, and hearts were collected for confocal microscopy or HPLC.
# For confocal microscopy, cryostat sections were first stained for apoptotic DNA strand breaks according to the TUNEL protocol (using the commercially available Apoptag™ kit, Oncor Inc., Gaithersburg Md.) and counterstained with rabbit anti-connexin37 antibody or rabbit anti-connexin40 antibody for conductance cells, or with rabbit anti-myosin antibody for cardiac myocytes. Immunodetection of connexin isoforms 40 and 43 has been established as a useful method to detect cells of the cardiac conductance system in rodents (Gourdie et al., The spatial distribution and relative abundance of gap-junctional connexin40 and connexin43 correlate to functional properties of components of the cardiac atrioventricular conducting system, J. Cell Science 105 (Pt 4) 985-991, 1993); because of the relatively weak signal of connexin40, the connexin isoform 37 can be used as equivalent marker for the conductance system in the mouse model (Willecke K et al, 1991; Willecke K, personal communication). The combination of rabbit anti-Neuron-specific enolase with propidium iodide followed published procedures (Current Protocols in Molecular Biology) and was used to identify cardiac neurons with advanced apoptotic condensation of nuclei. Procedures of immunohistology and image analysis are further described in detail in Graupner, WO 00/53236.
# [3] = tested on: IGFBP5; assay: Confocal immunohistology of IGF pathway proteins in cardiac cell types; assay type: in vivo, mouse; settings: after treatment, dose not stated
# Experimental: as §2, with “The strong suckling reflex facilitated delivery of the viscous and odorous formulation. Depending on the territorial protection behaviour of the mother, pups were briefly rolled in cage stray after gavage to prevent triggering maternal infanticide behaviour through unusual smell of the pups.” left out, “recorded. […]” for “recorded.”
# The mechanism of apoptosis was investigated using commercially available primary antibodies of highest purity, at dilutions recommended by the manufacturer, against IGF-1, IGF-II, the entire set of IGFbinding proteins (IGFBP1-5), IGF-R, mitochondrial Mn-dependent superoxide dismutase Mn-SOD, and cytoplasmic Cu/Zn-dependent superoxide dismutase Cu/Zn-SOD. […] Confocal images were captured and processed for quantitative analysis by Zeiss LSM-300 software. […] At least five independent regions of similar size were analyzed per tissue type and retinoid treatment condition. […]
# [4] = tested on: mitochondrial Mn-dependent superoxide dismutase Mn-SOD; assay: Quantitative confocal immunohistology of Mn-SOD protein signal in cardiac outflow tract; assay type: in vivo, mouse; settings: 20 mg/kg; for upregulation of MnSOD protein signal: connexin-positive cells
# Experimental: as §2, with “recorded. […]” for “recorded.”
# The mechanism of apoptosis was investigated using commercially available primary antibodies of highest purity, at dilutions recommended by the manufacturer, against IGF-1, IGF-II, the entire set of IGFbinding proteins (IGFBP1-5), IGF-R, mitochondrial Mn-dependent superoxide dismutase Mn-SOD, and cytoplasmic Cu/Zn-dependent superoxide dismutase Cu/Zn-SOD. […] Confocal images were captured and processed for quantitative analysis by Zeiss LSM-300 software. Briefly, the pixel intensities per unit area amounting to channel background were determined for each antibody/seconday antibody combination and subtracted from the experimental pixel intensities. […] At least five independent regions of similar size were analyzed per tissue type and retinoid treatment condition. Averaged pixel intensities per unit area upon 9cis retinoid induction were expressed as multiples of averaged pixel intensities per unit area in the absence of 9cis retinoid induction (fold induction +/−s.e.m.)
# [5] = tested on: mouse heart (cardiomyocytes); assay: Perinatal mouse heart model: cardiac growth, heart size and weight after retinoid gavage; assay type: in vivo
# Experimental: as §2, §3
# [6] = tested on: endogenous peroxidase activity; assay: Gas release from heart tissue sections on addition of H2O2; assay type: in vivo, mouse; settings: 20 mg/kg
# Experimental: as §2, with “The strong suckling reflex facilitated delivery of the viscous and odorous formulation. Depending on the territorial protection behaviour of the mother, pups were briefly rolled in cage stray after gavage to prevent triggering maternal infanticide behaviour through unusual smell of the pups.” left out
# Another observation with significant ramifications is the substantial activation of pathways metabolizing reactive oxygen species in cardiac tissue after administration of 20 mg/kg of 9cis-RA. […] Second, very high upregulation of MnSOD protein signal was detected in connexin-positive cells of the cardiac outflow tract; the signal of 3.4 fold upregulation localizes to the region of the atrium surrounding the sino-atrial node; the signal of 11 fold upregulation localizes most likely to the area of the sino-atrial node proper. […]
# [7] = Death of mouse pups after gavage; assay type: in vivo; settings: nonmutagenic amounts
# Experimental: as §2, §1
# [8] = higher amounts, 20 mg/kg and higher, mice
# [9] = in vivo administration to mice, dose not stated
smiles,measurement,setting,value
"CC1=C(/C=C/C(C)=C\C=C\C(C)=C\C(=O)O)C(C)(C)CCC1 [9cis-RA, 9-cis retinoic acid]",colocalization of TUNEL signal in cardiac myocytes,[1]; 20 mg/kg,No colocalization of TUNEL signal
same,colocalization of TUNEL signal in cardiac myocytes,[1]; less than 10 mg/kg,No colocalization of TUNEL signal
same,"apoptosis in cardiac conductance cells of perinatal mouse heart (FIG. 3, confocal micrographs)",[2]; 20 mg/kg,colocalization of apoptosis in cardiac conductance cells
same,correlation between apoptosis and conductance cell phenotype,[2]; 20 mg/kg,strong correlation
same,effect on apoptosis,[2]; 40 mg/kg,pro-apoptotic effect
same,apoptosis of cardiac neurons and cardiac pacemaker cells,[2]; [8],apoptosis of cardiac neurons and cardiac pacemaker cells
same,apoptosis in cardiac neurons and cardiac conductance system,[2]; [9],apoptosis in cardiac neurons and cells of the cardiac conductance system
same,correlation between apoptosis and conductance cell type,[2]; less than 10 mg/kg,no correlation
same,IGFBP5 expression in cardiac myocytes,[3],moderately upregulated
same,immunoreactive Mn-SOD in mitochondria of cells in the cardiac outflow tract (FIG. 4),[4]; versus carrier,upregulation
same,upregulation of MnSOD protein signal,[4]; most likely area of the sino-atrial node proper,11 fold
same,upregulation of MnSOD protein signal,[4]; region of the atrium surrounding the sino-atrial node,3.4 fold
same,effect on growth (growth factor-dependent pathway),[5]; 10 mg/kg,growth-inhibitory effect
same,size of the average myocardial myocyte,[5]; 20 mg/kg or less than 10 mg/kg,reduced
same,myocardial growth stunting,[5]; around 10 mg/kg,approached complete growth arrest
same,growth of cardiomyocytes,[5]; [8],reduced growth of cardiomyocytes
same,growth of cardiomyocytes,[5]; [9],reduced growth of cardiomyocytes
same,cell growth in heart,"[5]; moderate amounts, 3-10 mg/kg, mice","reduced growth of cardiomyocytes, cardiac neurons, and cells of the cardiac conductance system"
same,gas bubbles released from myocardial cells on H2O2 addition (endogenous peroxidase activity),[6],remarkable amounts of gas bubbles were released
same,death of mouse pups after gavage,[7],sudden death of mouse pups
"CC1=C(/C=C/C(C)=C/C=C/C(C)=C/C(=O)O)C(C)(C)CCC1 [all-trans-RA, all-trans retinoic acid]",correlation between apoptosis and conductance cell type,[2]; 40 mg/kg,no correlation
same,myocardial growth reduction,[5]; 40 mg/kg,less than 30%
